# Source: patent publication US8404679B2, “Pyrrolidine derivatives as NK2 receptor antagonists” (Hoffmann-La Roche Inc., priority 2008, dated 2013)
# Biological target: T1, human NK2 receptor (Homo sapiens, UniProt P21452)
# T1 construct: purchased Perkin Elmer biosignal Inc. 6110510
# T1 sequence (P21452 1-398): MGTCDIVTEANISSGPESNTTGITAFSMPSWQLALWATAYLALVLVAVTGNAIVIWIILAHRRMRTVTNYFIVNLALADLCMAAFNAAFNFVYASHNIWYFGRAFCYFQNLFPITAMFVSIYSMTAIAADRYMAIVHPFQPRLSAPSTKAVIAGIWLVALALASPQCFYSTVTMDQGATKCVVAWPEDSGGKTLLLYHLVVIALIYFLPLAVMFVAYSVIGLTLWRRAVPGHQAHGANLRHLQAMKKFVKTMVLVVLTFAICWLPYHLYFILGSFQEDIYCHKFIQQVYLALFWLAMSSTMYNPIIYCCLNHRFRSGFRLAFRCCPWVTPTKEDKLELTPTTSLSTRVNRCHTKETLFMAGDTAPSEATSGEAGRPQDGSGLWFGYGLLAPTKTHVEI
# Assay: [3H]SR48968 competition binding assay
# Details: [3H]SR48968 displacement, membranes of CHO cells stably expressing recombinant human NK2 receptor; Ki from IC50 by Cheng-Prussoff
# Protocol: [^3H]SR48968 Competition Binding Assay
# hNK2 receptor binding experiment were performed using [^3H]SR48968 (Catalog No. TRK398, specific activity: 27.0 Ci/mmol, Amersham, GE Healthcare UK limited, Buckinghamshire, UK) and membrane isolated from CHO cells stably expressing recombinant human NK2 receptor (product No. 6110510, Perkin Elmer biosignal Inc., Shelton, Conn., USA). After thawing, the membrane homogenates were centrifuged at 48,000×g for 10 min at 4° C., the pellets were resuspended in the 50 mM Tris-HCl, 3 mM MnCl2, 4 μg/mL Chymostatin, 0.04% BSA binding buffer at pH 7.4 to a final assay concentration of 6.5 μg protein/well. For inhibition experiments, membranes were incubated with [^3H]SR48968 at a concentration equal to KD value of radioligand and 10 concentrations of the inhibitory compound (0.0003-10 μM) (in a total reaction volume of 500 μl) for 75 min at room temperature (RT). At the end of the incubation, membranes were filtered onto unitfilter (96-well white microplate with bonded GF/C filter preincubated 1 h in 0.3% polyethylenimine, Packard BioScience, Meriden, Conn.) with a Filtermate 196 harvester (Packard BioScience) and washed 4 times with ice-cold 50 mM Tris-HCl, pH 7.4 buffer. Nonspecific binding was measured in the presence of 10 μM 1-{2-[(R)-3-(3,4-dichloro-phenyl)-1-(3,4,5-trimethoxy-benzoyl)-pyrrolidin-3-yl]-ethyl}-4-phenyl-piperidine-4-carboxylic acid amide. The radioactivity on the filter was counted (5 min) on a Packard Top-count microplate scintillation counter with quenching correction after addition of 45 μl of microscint 40 (Canberra Packard S. A., Zürich, Switzerland) and shaking for 1 h. Inhibition curves were fitted according to the Hill equation: y=100/(1+(x/IC50)^nH), where nH=slope factor using Excel-fit 4 software (Microsoft). IC50 values were derived from the inhibition curve and the affinity constant (Ki) values were calculated using the Cheng-Prussoff equation Ki=IC50/(1+[L]/KD) where [L] was the concentration of radioligand and KD was its dissociation constant at the receptor, derived from the saturation isotherm.
row,SMILES,Ki [nM]
1,"COc1ccc(C(=O)N(C)[C@@H]2CN(C(=O)c3cc(Cl)nc(Cl)c3)C[C@H]2c2ccc(Cl)c(Cl)c2)cc1C(F)(F)F (racemic) [Example 52, rac-N-[(3S,4R)-4-(3,4-Dichloro-phenyl)-1-(2,6-dichloro-pyridine-4-carbonyl)-pyrrolidin-3-yl]-4-methoxy-N-methyl-3-trifluoromethyl-benzamide]",3.72
2,"COc1ccc(C(=O)N(C)[C@@H]2CN(C(=O)c3ccc(OC(F)(F)F)cc3)C[C@H]2c2ccc(Cl)c(Cl)c2)cc1C(F)(F)F (racemic) [Example 53, rac-N-[(3S,4R)-4-(3,4-Dichloro-phenyl)-1-(4-trifluoromethoxy-benzoyl)-pyrrolidin-3-yl]-4-methoxy-N-methyl-3-trifluoromethyl-benzamide]",2.91
3,"COc1ccc(C(=O)N(C)[C@@H]2CN(C(=O)c3cccc(S(C)(=O)=O)c3)C[C@H]2c2ccc(Cl)c(Cl)c2)cc1C(F)(F)F (racemic) [Example 54, rac-N-[(3S,4R)-4-(3,4-Dichloro-phenyl)-1-(3-methanesulfonyl-benzoyl)-pyrrolidin-3-yl]-4-methoxy-N-methyl-3-trifluoromethyl-benzamide]",3.81
4,"COc1ccc(C(=O)N2C[C@@H](N(C)C(=O)c3ccc(OC)c(C(F)(F)F)c3)[C@H](c3ccc(Cl)c(Cl)c3)C2)cc1C (racemic) [Example 55, rac-N-[(3S,4R)-4-(3,4-Dichloro-phenyl)-1-(4-methoxy-3-methyl-benzoyl)-pyrrolidin-3-yl]-4-methoxy-N-methyl-3-trifluoromethyl-benzamide]",2.06
5,"COc1ccc(C(=O)N(C)[C@@H]2CN(C(=O)c3cc(C)cc(C)c3)C[C@H]2c2ccc(Cl)c(Cl)c2)cc1C(F)(F)F (racemic) [Example 56, rac-N-[(3S,4R)-4-(3,4-Dichloro-phenyl)-1-(3,5-dimethyl-benzoyl)-pyrrolidin-3-yl]-4-methoxy-N-methyl-3-trifluoromethyl-benzamide]",9.52
6,"COc1ccc(C(=O)N(C)[C@@H]2CN(C(=O)c3ccc(C(C)=O)cc3)C[C@H]2c2ccc(Cl)c(Cl)c2)cc1C(F)(F)F (racemic) [Example 57, rac-N-[(3S,4R)-1-(4-Acetyl-benzoyl)-4-(3,4-dichloro-phenyl)-pyrrolidin-3-yl]-4-methoxy-N-methyl-3-trifluoromethyl-benzamide]",1.55
7,"COc1ccc(C(=O)N(C)[C@@H]2CN(C(=O)c3cc(C)n(C)n3)C[C@H]2c2ccc(Cl)c(Cl)c2)cc1C(F)(F)F (racemic) [Example 58, rac-N-[(3S,4R)-4-(3,4-Dichloro-phenyl)-1-(1,5-dimethyl-1H-pyrazole-3-carbonyl)-pyrrolidin-3-yl]-4-methoxy-N-methyl-3-trifluoromethyl-benzamide]",8.52
8,"CN(C(=O)c1cc(Cl)ccn1)[C@@H]1CN(C(=O)c2ccc(C#N)cc2)C[C@H]1c1ccc(Cl)c(Cl)c1 (racemic) [Example 59, rac-4-Chloro-pyridine-2-carboxylic acid [(3S,4R)-1-(4-cyano-benzoyl)-4-(3,4-dichloro-phenyl)-pyrrolidin-3-yl]-methyl-amide]",12.8
9,"Cc1ccnc(C(=O)N(C)[C@@H]2CN(C(=O)c3ccc(C#N)cc3)C[C@H]2c2ccc(Cl)c(Cl)c2)c1 (racemic) [Example 63, rac-4-Methyl-pyridine-2-carboxylic acid [(3S,4R)-1-(4-cyano-benzoyl)-4-(3,4-dichloro-phenyl)-pyrrolidin-3-yl]-methyl-amide]",2.64
10,"CCOCc1ccc(C(=O)N(C)[C@@H]2CN(C(=O)c3ccc(C#N)cc3)C[C@H]2c2ccc(Cl)c(Cl)c2)nc1 (racemic) [Example 65, rac-5-Ethoxymethyl-pyridine-2-carboxylic acid [(3S,4R)-1-(4-cyano-benzoyl)-4-(3,4-dichloro-phenyl)-pyrrolidin-3-yl]-methyl-amide]",30.2
11,"Cc1cc(Cl)cc(C(=O)N(C)[C@@H]2CN(C(=O)c3ccc(C#N)cc3)C[C@H]2c2ccc(Cl)c(Cl)c2)n1 (racemic) [Example 66, rac-4-Chloro-6-methyl-pyridine-2-carboxylic acid [(3S,4R)-1-(4-cyano-benzoyl)-4-(3,4-dichloro-phenyl)-pyrrolidin-3-yl]-methyl-amide]",49.8
12,"COc1cc(C(=O)N(C)[C@@H]2CN(C(=O)c3ccc(C#N)cc3)C[C@H]2c2ccc(Cl)c(Cl)c2)nc2ccccc12 (racemic) [Example 67, rac-4-Methoxy-quinoline-2-carboxylic acid [(3S,4R)-1-(4-cyano-benzoyl)-4-(3,4-dichloro-phenyl)-pyrrolidin-3-yl]-methyl-amide]",52.9
13,"CCc1cc(Cl)cc(C(=O)N(C)[C@@H]2CN(C(=O)c3ccc(C#N)cc3)C[C@H]2c2ccc(Cl)c(Cl)c2)n1 (racemic) [Example 68, rac-4-Chloro-6-ethyl-pyridine-2-carboxylic acid [(3S,4R)-1-(4-cyano-benzoyl)-4-(3,4-dichloro-phenyl)-pyrrolidin-3-yl]-methyl-amide]",74.3
14,"CN(C(=O)c1ccc(Cl)cn1)[C@@H]1CN(C(=O)c2ccc(C#N)cc2)C[C@H]1c1ccc(Cl)c(Cl)c1 (racemic) [Example 69, rac-5-Chloro-pyridine-2-carboxylic acid [(3S,4R)-1-(4-cyano-benzoyl)-4-(3,4-dichloro-phenyl)-pyrrolidin-3-yl]-methyl-amide]",23.3
15,"CN(C(=O)c1ccc(C#N)cn1)[C@@H]1CN(C(=O)c2ccc(C#N)cc2)C[C@H]1c1ccc(Cl)c(Cl)c1 (racemic) [Example 70, rac-5-Cyano-pyridine-2-carboxylic acid [(3S,4R)-1-(4-cyano-benzoyl)-4-(3,4-dichloro-phenyl)-pyrrolidin-3-yl]-methyl-amide]",39.7
16,"COc1nc(C(=O)N(C)[C@@H]2CN(C(=O)c3ccc(C#N)cc3)C[C@H]2c2ccc(Cl)c(Cl)c2)ccc1C#N (racemic) [Example 71, rac-5-Cyano-6-methoxy-pyridine-2-carboxylic acid [(3S,4R)-1-(4-cyano-benzoyl)-4-(3,4-dichloro-phenyl)-pyrrolidin-3-yl]-methyl-amide]",34.4
17,"CN(C(=O)c1ccc(Cl)c(C(F)(F)F)c1)[C@@H]1CN(C(=O)c2ccc(C#N)cc2)C[C@H]1c1ccc(Cl)c(Cl)c1 (racemic) [Example 72, rac-4-Chloro-N-[(3S,4R)-1-(4-cyano-benzoyl)-4-(3,4-dichloro-phenyl)-pyrrolidin-3-yl]-N-methyl-3-trifluoromethyl-benzamide]",0.58
18,"COc1ccc(C(=O)N(C)[C@@H]2CN(C(=O)c3ccc(C#N)cc3)C[C@H]2c2ccc(Cl)c(Cl)c2)cc1F (racemic) [Example 73, rac-N-[(3S,4R)-1-(4-Cyano-benzoyl)-4-(3,4-dichloro-phenyl)-pyrrolidin-3-yl]-3-fluoro-4-methoxy-N-methyl-benzamide]",12.4
19,"COc1ccc(C(=O)N(C)[C@@H]2CN(C(=O)c3ccc(C#N)cc3)C[C@H]2c2ccc(Cl)c(Cl)c2)cc1C(C)(C)C (racemic) [Example 74, rac-3-tert-Butyl-N-[(3S,4R)-1-(4-cyano-benzoyl)-4-(3,4-dichloro-phenyl)-pyrrolidin-3-yl]-4-methoxy-N-methyl-benzamide]",1.3
20,"CN(C(=O)c1ccc(OCC2CC2)cc1)[C@@H]1CN(C(=O)c2ccc(C#N)cc2)C[C@H]1c1ccc(Cl)c(Cl)c1 (racemic) [Example 75, rac-N-[(3S,4R)-1-(4-Cyano-benzoyl)-4-(3,4-dichloro-phenyl)-pyrrolidin-3-yl]-4-cyclopropylmethoxy-N-methyl-benzamide]",23
21,"COc1ncc(C(=O)N(C)[C@@H]2CN(C(=O)c3ccc(C#N)cc3)C[C@H]2c2ccc(Cl)c(Cl)c2)cn1 (racemic) [Example 76, rac-2-Methoxy-pyrimidine-5-carboxylic acid [(3S,4R)-1-(4-cyano-benzoyl)-4-(3,4-dichloro-phenyl)-pyrrolidin-3-yl]-methyl-amide]",96
22,"Cc1ccc(C(=O)N(C)[C@@H]2CN(C(=O)c3ccc(C#N)cc3)C[C@H]2c2ccc(Cl)c(Cl)c2)cn1 (racemic) [Example 77, rac-N-[(3S,4R)-1-(4-Cyano-benzoyl)-4-(3,4-dichloro-phenyl)-pyrrolidin-3-yl]-6,N-dimethyl-nicotinamide]",28.8
